This is an account of results in patent US8999940B2 (Ipsen Pharma S.A.S., priority 2008, dated 2015).

Series [1] in a line: Rat plasma half-life assay. It is filed as in vitro ADME. The settings on record: 37° C., LC-MS, read-out: Rat Plasma T½ (converted). Here is the method:
(§1) B. Human and Rat Plasma Half-Life Assay
(§2) 50 μl was removed at various times, like at 0, 1, 2, 3, 4, 8, 24, 32, 48, 56, 72 hours, mixed with 5 μl formic acid and 150 μL acetonitrile in a microcentrifuge tube, vertexed, and centrifuged for 10 minutes at 10 K rpm. The supernatant was transferred to an injection vial and analyzed by LC-MS. The LC-MS system consisted of an API4000 mass spectrometer with an ESI probe. Positive ion mode and full scan detection were used. HPLC separation was carried out on a Luna 3μ. C8 (2), 2×30 mm column with a gradient from 90% A to 90% B in 10 minutes at a flow rate of 0.3 ml/min. Buffer A was 1% formic acid in water and buffer B was 1% formic acid acetonitrile.

Series [2] concerns the target T1, human recombinant GIP receptor (Homo sapiens, UniProt P48546).
T1 construct: expressed in transfected cells; host or cells: CHO-K1 clonal cells (membrane preparation)
T1 sequence (P48546 22-466): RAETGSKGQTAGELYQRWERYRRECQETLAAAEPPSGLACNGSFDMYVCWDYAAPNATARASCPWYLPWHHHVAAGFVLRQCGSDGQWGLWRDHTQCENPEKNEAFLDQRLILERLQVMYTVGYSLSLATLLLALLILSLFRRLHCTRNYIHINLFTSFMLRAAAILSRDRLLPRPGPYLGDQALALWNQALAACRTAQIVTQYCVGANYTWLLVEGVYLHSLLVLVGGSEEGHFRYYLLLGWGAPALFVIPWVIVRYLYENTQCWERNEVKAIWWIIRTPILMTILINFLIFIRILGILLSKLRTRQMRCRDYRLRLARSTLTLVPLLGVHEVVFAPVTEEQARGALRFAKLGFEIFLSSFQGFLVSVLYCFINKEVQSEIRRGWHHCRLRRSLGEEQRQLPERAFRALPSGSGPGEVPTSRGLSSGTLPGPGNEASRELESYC
The series can be described thus: In vitro hGIP receptor binding assay. Here is the method:
A. In Vitro hGIP Receptor Binding Assay […] The incubations were terminated by rapid filtration through GF/C filters (pre-soaked in 0.5% polyethylenimine) using a Brandel filtration manifold. Each tube and filter were then washed three times with 5-ml aliquots of ice-cold buffer.

A short description of series [3]: Human plasma half-life assay. It is filed as in vitro ADME. The settings on record: 37° C., LC-MS, read-out: Human Plasma T½ (converted). On the procedure: as §1, §2

By pKi is commonly meant −log10 of the Ki, conventionally taken in molar units.

pKi: −log10 of the molar value.

Take `CC[C@H](C)[C@H](NC(=O)[C@H](CCCCN)NC(=O)[C@H](CC(=O)O)NC(=O)[C@H](CCSC)NC(=O)[C@H](C)NC(=O)[C@@H](NC(=O)C1(NC(=O)[C@H](Cc2ccc(O)cc2)NC(=O)[C@H](CC(=O)O)NC(=O)[C@H](CO)NC(=O)[C@@H](NC(=O)[C@H](Cc2ccccc2)NC(=O)[C@@H](NC(=O)CNC(=O)[C@H](CCC(=O)O)NC(=O)C(C)(C)NC(=O)[C@@H](N)Cc2ccc(O)c(O)c2)[C@@H](C)O)[C@@H](C)CC)CCCC1)[C@@H](C)CC)C(=O)N[C@@H](Cc1c[nH]cn1)C(=O)N[C@@H](CCC(N)=O)C(=O)N[C@@H](CCC(N)=O)C(=O)N[C@@H](CC(=O)O)C(=O)N[C@@H](Cc1ccccc1)C(=O)N[C@H](C(=O)N[C@@H](CC(N)=O)C(=O)N[C@@H](Cc1c[nH]c2ccccc12)C(=O)N[C@@H](CC(C)C)C(=O)N[C@@H](CC(C)C)C(=O)N[C@@H](C)C(=O)N[C@@H](CCC(N)=O)C(=O)N[C@@H](CCCCN)C(=O)NCC(=O)N[C@@H](CCCCN)C(=O)N[C@@H](CCCCN)C(=O)N[C@@H](CC(N)=O)C(=O)N[C@@H](CC(=O)O)C(=O)N[C@@H](Cc1c[nH]c2ccccc12)C(=O)N[C@@H](CCCCN)C(=O)N[C@@H](Cc1c[nH]cn1)C(=O)N[C@@H](CC(N)=O)C(=O)N[C@H](C(=O)NC1(C(=O)N[C@@H](CCC(N)=O)C(=O)O)CCCC1)[C@@H](C)CC)C(C)C` [Example 27, (30H-Tyr^1, Aib^2, A5c^11, 41)hGIP(1-42)-OH]: the half-life at 0.1 mg/ml in series [1] is 5.1 h; in series [3], 7 h. Further, the pKi in series [2] was 8.17.
Consider `CC[C@H](C)[C@H](NC(=O)[C@H](CCCCN)NC(=O)[C@H](CC(=O)O)NC(=O)[C@H](CCSC)NC(=O)[C@H](C)NC(=O)[C@@H](NC(=O)C1(NC(=O)[C@H](Cc2ccc(O)cc2)NC(=O)[C@H](CC(=O)O)NC(=O)[C@H](CO)NC(=O)[C@@H](NC(=O)[C@H](Cc2ccccc2)NC(=O)[C@@H](NC(=O)CNC(=O)[C@H](CCC(=O)O)NC(=O)C(C)(C)NC(=O)[C@@H](N)Cc2c(C)cc(O)cc2C)[C@@H](C)O)[C@@H](C)CC)CCCC1)[C@@H](C)CC)C(=O)N[C@@H](Cc1c[nH]cn1)C(=O)N[C@@H](CCC(N)=O)C(=O)N[C@@H](CCC(N)=O)C(=O)N[C@@H](CC(=O)O)C(=O)N[C@@H](Cc1ccccc1)C(=O)N[C@H](C(=O)N[C@@H](CC(N)=O)C(=O)N[C@@H](Cc1c[nH]c2ccccc12)C(=O)N[C@@H](CC(C)C)C(=O)N[C@@H](CC(C)C)C(=O)N[C@@H](C)C(=O)N[C@@H](CCC(N)=O)C(=O)N[C@@H](CCCCN)C(=O)NCC(=O)N[C@@H](CCCCN)C(=O)N[C@@H](CCCCN)C(=O)N[C@@H](CC(N)=O)C(=O)N[C@@H](CC(=O)O)C(=O)N[C@@H](Cc1c[nH]c2ccccc12)C(=O)N[C@@H](CCCCN)C(=O)N[C@@H](Cc1c[nH]cn1)C(=O)N[C@@H](CC(N)=O)C(=O)N[C@H](C(=O)NC1(C(=O)N[C@@H](CCC(N)=O)C(=O)O)CCCC1)[C@@H](C)CC)C(C)C` [Example 30, (2,6Me-Tyr^1, Aib^2, A5c^11, 41)hGIP(1-42)-OH], for which the results for the half-life at 0.1 mg/ml in series [1] and in series [3] were 7.2 h and 27.6 h, respectively. Also, in series [2], the pKi is 8.99.
In the case of `CC[C@H](C)[C@H](NC(=O)[C@H](CCCCN)NC(=O)[C@H](CC(=O)O)NC(=O)[C@H](CCSC)NC(=O)[C@H](C)NC(=O)[C@@H](NC(=O)C1(NC(=O)[C@H](Cc2ccc(O)cc2)NC(=O)[C@H](CC(=O)O)NC(=O)[C@H](CO)NC(=O)[C@@H](NC(=O)[C@H](Cc2ccccc2)NC(=O)[C@@H](NC(=O)CNC(=O)[C@H](CCC(=O)O)NC(=O)C(C)(C)NC(=O)[C@@H](N)Cc2cscn2)[C@@H](C)O)[C@@H](C)CC)CCCC1)[C@@H](C)CC)C(=O)N[C@@H](Cc1c[nH]cn1)C(=O)N[C@@H](CCC(N)=O)C(=O)N[C@@H](CCC(N)=O)C(=O)N[C@@H](CC(=O)O)C(=O)N[C@@H](Cc1ccccc1)C(=O)N[C@H](C(=O)N[C@@H](CC(N)=O)C(=O)N[C@@H](Cc1c[nH]c2ccccc12)C(=O)N[C@@H](CC(C)C)C(=O)N[C@@H](CC(C)C)C(=O)N[C@@H](C)C(=O)N[C@@H](CCC(N)=O)C(=O)N[C@@H](CCCCN)C(=O)NCC(=O)N[C@@H](CCCCN)C(=O)N[C@@H](CCCCN)C(=O)N[C@@H](CC(N)=O)C(=O)N[C@@H](CC(=O)O)C(=O)N[C@@H](Cc1c[nH]c2ccccc12)C(=O)N[C@@H](CCCCN)C(=O)N[C@@H](Cc1c[nH]cn1)C(=O)N[C@@H](CC(N)=O)C(=O)N[C@H](C(=O)NC1(C(=O)N[C@@H](CCC(N)=O)C(=O)O)CCCC1)[C@@H](C)CC)C(C)C` [Example 35, (Taz^1, Aib^2, A5c^11, 41)hGIP(1-42)-OH], the half-life at 0.1 mg/ml in series [1] was 50.6 h; in series [3] it was 74.5 h. Further, in series [2], the pKi is 8.48.
For `CC[C@H](C)[C@H](NC(=O)[C@H](CCCCN)NC(=O)[C@H](CC(=O)O)NC(=O)[C@H](CCSC)NC(=O)[C@H](C)NC(=O)[C@@H](NC(=O)C1(NC(=O)[C@H](Cc2ccc(O)cc2)NC(=O)[C@H](CC(=O)O)NC(=O)[C@H](CO)NC(=O)[C@@H](NC(=O)[C@H](Cc2ccccc2)NC(=O)[C@@H](NC(=O)CNC(=O)[C@H](CCC(=O)O)NC(=O)C(C)(C)NC(=O)[C@@H](N)CCc2ccc(O)cc2)[C@@H](C)O)[C@@H](C)CC)CCCC1)[C@@H](C)CC)C(=O)N[C@@H](Cc1c[nH]cn1)C(=O)N[C@@H](CCC(N)=O)C(=O)N[C@@H](CCC(N)=O)C(=O)N[C@@H](CC(=O)O)C(=O)N[C@@H](Cc1ccccc1)C(=O)N[C@H](C(=O)N[C@@H](CC(N)=O)C(=O)N[C@@H](Cc1c[nH]c2ccccc12)C(=O)N[C@@H](CC(C)C)C(=O)N[C@@H](CC(C)C)C(=O)N[C@@H](C)C(=O)N[C@@H](CCC(N)=O)C(=O)N[C@@H](CCCCN)C(=O)NCC(=O)N[C@@H](CCCCN)C(=O)N[C@@H](CCCCN)C(=O)N[C@@H](CC(N)=O)C(=O)N[C@@H](CC(=O)O)C(=O)N[C@@H](Cc1c[nH]c2ccccc12)C(=O)N[C@@H](CCCCN)C(=O)N[C@@H](Cc1c[nH]cn1)C(=O)N[C@@H](CC(N)=O)C(=O)N[C@H](C(=O)N[C@H](C(=O)N[C@@H](CCC(N)=O)C(=O)N[C@@H](Cc1c[nH]cn1)C(=O)O)[C@@H](C)O)[C@@H](C)CC)C(C)C` [Example 80, (hTyr^1, Aib^2, A5c^11, His^43)hGIP(1-43)-OH] the same measures were 18.4 h, 22.6 h and 8.03.
As for `CCCC[C@H](NC(=O)[C@H](C)NC(=O)[C@@H](NC(=O)C1(NC(=O)[C@H](Cc2ccc(O)cc2)NC(=O)[C@H](CC(=O)O)NC(=O)[C@H](CO)NC(=O)[C@@H](NC(=O)[C@H](Cc2ccccc2)NC(=O)[C@@H](NC(=O)CNC(=O)[C@H](CCC(=O)O)NC(=O)C(C)(C)NC(=O)[C@@H](N)Cc2c(C)cc(O)cc2C)[C@@H](C)O)[C@@H](C)CC)CCCC1)[C@@H](C)CC)C(=O)N[C@@H](CC(=O)O)C(=O)N[C@@H](CCCCN)C(=O)N[C@H](C(=O)N[C@@H](Cc1c[nH]cn1)C(=O)N[C@@H](CCC(N)=O)C(=O)N[C@@H](CCC(N)=O)C(=O)N[C@@H](CC(=O)O)C(=O)N[C@@H](Cc1ccccc1)C(=O)N[C@H](C(=O)N[C@@H](CC(N)=O)C(=O)N[C@@H](Cc1c[nH]c2ccccc12)C(=O)N[C@@H](CC(C)C)C(=O)N[C@@H](CC(C)C)C(=O)N[C@@H](C)C(=O)N[C@@H](CCC(N)=O)C(=O)N[C@@H](CCCCN)C(=O)NCC(=O)N[C@@H](CCCCN)C(=O)N[C@@H](CCCCN)C(=O)N[C@@H](CC(N)=O)C(=O)N[C@@H](CC(=O)O)C(=O)N[C@@H](Cc1c[nH]c2ccccc12)C(=O)N[C@@H](CCCCN)C(=O)N[C@@H](Cc1c[nH]cn1)C(=O)N[C@@H](CC(N)=O)C(=O)N[C@H](C(=O)N[C@H](C(=O)N[C@@H](CCC(N)=O)C(=O)N[C@@H](Cc1c[nH]cn1)C(=O)O)[C@@H](C)O)[C@@H](C)CC)C(C)C)[C@@H](C)CC` [Example 55, (2,6Me-Tyr^1, Aib^2, A5c^11, Nle^14, His^43)hGIP(1-43)-OH], the half-life at 0.1 mg/ml in series [1] was 16.1 h; in series [3], 37.7 h. Besides, in series [2], the pKi was 7.41.
